Patent US12419305B2, “Antimicrobial compositions” (Firmenich SA, priority 2018, dated 2025)
Read-outs that look alike come from different tables or passages of the source.

Legend:
[1] = test system: Salmonella enterica ATCC 10708; test: BCT test (bacterial contact time), 60 s, log reduction / effect fraction; CI by Compusyn; type: cell-based; settings: Salmonella enterica, ATCC10708, 1 min, BCT 60 s, in 25% EtOH; for log reduction at 0.05 % strength: Dose 0.05 % w/v; for log reduction at 0.06 % strength: Dose 0.06 % w/v
Summary of the method: (§1)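 Read-out: log CFU from turbidity (OD600) of serially diluted wells after 37° C, 180 rpm growth; log reduction relative to ethanol-only control. Cells at ~1×10^8/mL met ethanolic test compositions 1:1 for the listed contact time. CI from concentrations and effect fractions; <0.9 synergy, 0.9–1.0 additive, >1.0 antagonism.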

[2] = test system: Pseudomonas aeruginosa ATCC 15442; test: as above; type: cell-based; settings: Pseudomonas aeruginosa, ATCC15442, 1 min, BCT 60 s, in 25% EtOH
Summary of the method: as §1

S. aureus ATCC 6538 = test: as above; type: cell-based, Staphylococcus aureus; settings: Staphylococcus aureus, ATCC6538, 1 min, 60 s, in 25% EtOH; for log reduction at 0.1 % strength: dose 0.100 % w/v; for log reduction at 0.125 % strength: dose 0.125 % w/v; for log reduction at 0.15 % strength: dose 0.150 % w/v
Summary of the method: as §1

E. coli ATCC 10536 = test: BCT test (bacterial contact time), 45 s, log reduction / effect fraction; CI by Compusyn; type: cell-based, Escherichia coli; settings: Escherichia coli, ATCC10536, 45 s, contact 45 s, 20% EtOH; for log reduction at 0.05 % strength: dose 0.05% w/v; for log reduction at 0.07 % strength: dose 0.07% w/v; for log reduction at 0.09 % strength: dose 0.09% w/v; for log reduction at 0.1 % strength: dose 0.1% w/v
Summary of the method: as §1

C. xerosis ATCC 373 = test: BCT test (bacterial contact time), 120 s, log reduction / effect fraction; CI by Compusyn; type: cell-based; settings: Corynebacterium xerosis, ATCC373, 2 min, contact 120 s, 25% EtOH; for log reduction at 0.25 % strength: dose 0.25% w/v; for log reduction at 0.3 % strength: dose 0.3% w/v
Summary of the method: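 C. xerosis cells grown in BHI-TW80 at 37 °C to OD600 1.6 were exposed to ethanolic perfume compositions for 120 s. Viable counts (log CFU) came from serial dilution and OD600 growth after 37 °C incubation, giving log reduction versus ethanol control. CI was computed from concentrations and effect fractions, with <0.9 taken as synergy.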

How did the log reduction at 0.04 % strength ([1]; Dose 0.04 % w/v) turn out when C=C(C)[C@@H]1CC=C(CO)CC1 [Perycorolle, (S)-(−)-(4-Isopropenyl-1-cyclohexenyl)methanol] was run?
Its log reduction at 0.04 % strength is 0.

What about the log reduction at 0.05 % strength ([1]; read-out: Log reduction) of the same compound?
The log reduction at 0.05 % strength was 0.3.

And the log reduction at 0.06 % strength [1]?
The log reduction at 0.06 % strength was 0.9.

And the log reduction at 0.07 % strength ([1]; Dose 0.07 % w/v)?
Its log reduction at 0.07 % strength is 2.2.

And the log reduction at 0.08 % strength ([1]; Dose 0.080 % w/v)?
The log reduction at 0.08 % strength was 5.2.

What about the log reduction at 0.05 % strength ([2]; Dose 0.05 % w/v) of the same compound?
The log reduction at 0.05 % strength was 1.8.

And the log reduction at 0.06 % strength ([2]; Dose 0.06 % w/v)?
The log reduction at 0.06 % strength was 3.7.

And the log reduction at 0.07 % strength ([2]; Dose 0.07 % w/v)?
Its log reduction at 0.07 % strength is 5.1.

And the log reduction at 0.08 % strength ([2]; Dose 0.08 % w/v)?
The log reduction at 0.08 % strength was 7.1.

And the log reduction at 0.1 % strength ([2]; Dose 0.1 % w/v)?
Its log reduction at 0.1 % strength is 7.5.

And the log reduction at 0.05 % strength (S. aureus ATCC 6538; dose 0.050 % w/v)?
The log reduction at 0.05 % strength was 0.2.

What about the log reduction at 0.075 % strength (S. aureus ATCC 6538; dose 0.075 % w/v) of the same compound?
The log reduction at 0.075 % strength was 1.6.

And the log reduction at 0.1 % strength (S. aureus ATCC 6538)?
The log reduction at 0.1 % strength was 5.1.

And the log reduction at 0.125 % strength (S. aureus ATCC 6538)?
Its log reduction at 0.125 % strength is 7.3.

What about the log reduction at 0.15 % strength (S. aureus ATCC 6538; read-out: Log reduction) of the same compound?
Its log reduction at 0.15 % strength is 7.3.

What about the log reduction at 0.05 % strength (E. coli ATCC 10536) of the same compound?
Its log reduction at 0.05 % strength is 0.

What about the log reduction at 0.07 % strength (E. coli ATCC 10536) of the same compound?
The log reduction at 0.07 % strength was 1.2.

And the log reduction at 0.08 % strength (E. coli ATCC 10536; dose 0.08% w/v)?
Its log reduction at 0.08 % strength is 3.7.

What about the log reduction at 0.09 % strength (E. coli ATCC 10536) of the same compound?
The log reduction at 0.09 % strength was 6.

And the log reduction at 0.1 % strength (E. coli ATCC 10536; read-out: Log reduction)?
The log reduction at 0.1 % strength was 7.4.

What about the log reduction at 0.1 % strength (C. xerosis ATCC 373; dose 0.1% w/v) of the same compound?
Its log reduction at 0.1 % strength is 0.2.

And the log reduction at 0.15 % strength (C. xerosis ATCC 373; dose 0.15% w/v)?
The log reduction at 0.15 % strength was 3.4.

What about the log reduction at 0.2 % strength (C. xerosis ATCC 373; dose 0.2% w/v, read-out: Log reduction) of the same compound?
Its log reduction at 0.2 % strength is 4.8.

What about the log reduction at 0.25 % strength (C. xerosis ATCC 373; read-out: Log reduction) of the same compound?
The log reduction at 0.25 % strength was 6.5.

And the log reduction at 0.3 % strength (C. xerosis ATCC 373; read-out: Log reduction)?
The log reduction at 0.3 % strength was 6.4.

With C/C=C/c1ccc(O)c(OC)c1 [Isoeugenol, 2-Methoxy-4-(prop-1-en-1-yl)phenol] as the compound, how does the log reduction at 0.05 % strength ([1]; read-out: Log reduction) read?
Its log reduction at 0.05 % strength is -0.1.

And the log reduction at 0.06 % strength [1]?
The log reduction at 0.06 % strength was 0.

And the log reduction at 0.075 % strength ([1]; Dose 0.075 % w/v)?
The log reduction at 0.075 % strength was 4.

And the log reduction at 0.08 % strength ([1]; Dose 0.08 % w/v)?
The log reduction at 0.08 % strength was 4.

And the log reduction at 0.08 % strength ([1]; Dose 0.080 % w/v)?
Its log reduction at 0.08 % strength is 0.8.

And the log reduction at 0.1 % strength ([1]; Dose 0.1 % w/v, read-out: Log reduction)?
Its log reduction at 0.1 % strength is 2.6.

And the log reduction at 0.1 % strength ([1]; Dose 0.10 % w/v, read-out: Log reduction)?
The log reduction at 0.1 % strength was 6.9.

What about the log reduction at 0.11 % strength ([1]; Dose 0.110 % w/v) of the same compound?
The log reduction at 0.11 % strength was 7.5.

And the log reduction at 0.12 % strength ([1]; Dose 0.120 % w/v, read-out: Log reduction)?
Its log reduction at 0.12 % strength is 7.2.

And the log reduction at 0.125 % strength ([2]; Dose 0.125 % w/v)?
The log reduction at 0.125 % strength was 7.5.

And the log reduction at 0.15 % strength ([2]; Dose 0.15 % w/v)?
The log reduction at 0.15 % strength was 7.5.

What about the log reduction at 0.1 % strength (S. aureus ATCC 6538) of the same compound?
The log reduction at 0.1 % strength was 1.1.

And the log reduction at 0.125 % strength (S. aureus ATCC 6538)?
The log reduction at 0.125 % strength was 3.7.

And the log reduction at 0.15 % strength (S. aureus ATCC 6538; read-out: Log reduction)?
The log reduction at 0.15 % strength was 5.6.

And the log reduction at 0.2 % strength (S. aureus ATCC 6538; dose 0.200 % w/v, read-out: Log reduction)?
The log reduction at 0.2 % strength was 7.5.

What about the log reduction at 0.05 % strength (E. coli ATCC 10536) of the same compound?
The log reduction at 0.05 % strength was 0.1.

What about the log reduction at 0.07 % strength (E. coli ATCC 10536) of the same compound?
Its log reduction at 0.07 % strength is 0.8.

And the log reduction at 0.09 % strength (E. coli ATCC 10536)?
The log reduction at 0.09 % strength was 2.9.

And the log reduction at 0.1 % strength (E. coli ATCC 10536; read-out: Log reduction)?
Its log reduction at 0.1 % strength is 4.9.

What about the log reduction at 0.12 % strength (E. coli ATCC 10536; dose 0.12% w/v, read-out: Log reduction) of the same compound?
Its log reduction at 0.12 % strength is 7.4.

And the log reduction at 0.25 % strength (C. xerosis ATCC 373; read-out: Log reduction)?
Its log reduction at 0.25 % strength is 2.4.

And the log reduction at 0.3 % strength (C. xerosis ATCC 373; read-out: Log reduction)?
Its log reduction at 0.3 % strength is 3.4.

What about the log reduction at 0.4 % strength (C. xerosis ATCC 373; dose 0.4% w/v, read-out: Log reduction) of the same compound?
The log reduction at 0.4 % strength was 5.

What about the log reduction at 0.5 % strength (C. xerosis ATCC 373; dose 0.5% w/v) of the same compound?
Its log reduction at 0.5 % strength is 6.3.

What about the log reduction at 0.6 % strength (C. xerosis ATCC 373; dose 0.6% w/v) of the same compound?
The log reduction at 0.6 % strength was 6.6.
